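The compound was tested at five concentrations on cells cultured in 96-well plates, with a 48-hour exposure period. GI50 = concentration required for 50% inhibition of growth. TGI denotes the concentration required for complete inhibition of growth.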
Key:
Experiment in all cases: inhibition of tumour cell growth, NCI panel, 48 h
NCI-H226 lung = test system: NCI-H226 lung
OVCAR-5 ovarian = test system: OVCAR-5 ovarian
NCI-H23 lung = test system: NCI-H23 lung
HOP-92 NSCLC = test system: HOP-92 NSCLC
KM12 colon = test system: KM12 colon
HCT-15 colon = test system: HCT-15 colon
HT29 colon = test system: HT29 colon
SNB-75 CNS = test system: SNB-75 CNS
IGROV1 ovarian = test system: IGROV1 ovarian
NCI/ADR-RES ovarian = test system: NCI/ADR-RES ovarian
TK-10 renal = test system: TK-10 renal
SF-295 CNS = test system: SF-295 CNS
SF-268 CNS = test system: SF-268 CNS
HCT-116 colon = test system: HCT-116 colon
BT-549 breast = test system: BT-549 breast
SR leukemia = test system: SR leukemia
SNB-19 CNS = test system: SNB-19 CNS
SK-OV-3 ovarian = test system: SK-OV-3 ovarian
SK-MEL-28 melanoma = test system: SK-MEL-28 melanoma
NCI-H522 lung = test system: NCI-H522 lung
786-0 renal = test system: 786-0 renal
T-47D breast = test system: T-47D breast
A549 NSCLC = test system: A549 NSCLC
SN12C renal = test system: SN12C renal
OVCAR-4 ovarian = test system: OVCAR-4 ovarian
OVCAR-8 ovarian = test system: OVCAR-8 ovarian
CAKI-1 renal = test system: CAKI-1 renal
HL-60(TB) leukemia = test system: HL-60(TB) leukemia
PC-3 prostate = test system: PC-3 prostate
SW-620 colon = test system: SW-620 colon
SF-539 CNS = test system: SF-539 CNS
UO-31 renal = test system: UO-31 renal
ACHN renal = test system: ACHN renal
LOX IMVI melanoma = test system: LOX IMVI melanoma
U251 CNS = test system: U251 CNS
HOP-62 NSCLC = test system: HOP-62 NSCLC
HCC-2998 colon = test system: HCC-2998 colon
UACC-257 melanoma = test system: UACC-257 melanoma
M14 melanoma = test system: M14 melanoma
NCI-H460 lung = test system: NCI-H460 lung
SK-MEL-2 melanoma = test system: SK-MEL-2 melanoma
MDA-N = test system: MDA-N
COLO 205 colon = test system: COLO 205 colon
DU-145 prostate = test system: DU-145 prostate
MDA-MB-435 = test system: MDA-MB-435
RPMI-8226 leukemia = test system: RPMI-8226 leukemia
UACC-62 melanoma = test system: UACC-62 melanoma
OVCAR-3 ovarian = test system: OVCAR-3 ovarian
MOLT-4 leukemia = test system: MOLT-4 leukemia
SK-MEL-5 melanoma = test system: SK-MEL-5 melanoma
MDA-MB-231 breast = test system: MDA-MB-231 breast
MCF7 breast = test system: MCF7 breast
CCRF-CEM leukemia = test system: CCRF-CEM leukemia
RXF 393 renal = test system: RXF 393 renal
EKVX NSCLC = test system: EKVX NSCLC
MALME-3M melanoma = test system: MALME-3M melanoma
K-562 leukemia = test system: K-562 leukemia
HS 578T breast = test system: HS 578T breast
A498 renal = test system: A498 renal

CC1(C)CC2C=C(C=O)C3(C=O)CC3(C)C2C1 (stereo not given)
TGI (NCI-H226 lung): 9.18 µM | TGI (OVCAR-5 ovarian): 4.14 µM | TGI (NCI-H23 lung): 3.99 µM | TGI (HOP-92 NSCLC): 3.97 µM | TGI (KM12 colon): 13.5 µM | TGI (HCT-15 colon): 3.94 µM | TGI (HT29 colon): 4.54 µM | TGI (SNB-75 CNS): 7.56 µM | TGI (IGROV1 ovarian): 4.68 µM | TGI (NCI/ADR-RES ovarian): 5.21 µM | TGI (TK-10 renal): 5.62 µM | TGI (SF-295 CNS): 18.8 µM | TGI (SF-268 CNS): 6.02 µM | TGI (HCT-116 colon): 2.21 µM | TGI (BT-549 breast): 3.37 µM | TGI (SR leukemia): 2.45 µM | TGI (SNB-19 CNS): 25.6 µM | TGI (SK-OV-3 ovarian): 16.2 µM | TGI (SK-MEL-28 melanoma): 4.19 µM | TGI (NCI-H522 lung): 2.51 µM | TGI (786-0 renal): 3.13 µM | TGI (T-47D breast): 9.02 µM | TGI (A549 NSCLC): 27.2 µM | TGI (SN12C renal): 8.23 µM | TGI (OVCAR-4 ovarian): 3.22 µM | TGI (OVCAR-8 ovarian): 6.1 µM | TGI (CAKI-1 renal): 4.26 µM | TGI (HL-60(TB) leukemia): > 100 µM | TGI (PC-3 prostate): 4.33 µM | TGI (SW-620 colon): 2.4 µM | TGI (SF-539 CNS): 3.51 µM | TGI (UO-31 renal): 3.29 µM | TGI (ACHN renal): 2.83 µM | TGI (LOX IMVI melanoma): 2.81 µM | TGI (U251 CNS): 6.45 µM | TGI (HOP-62 NSCLC): 8.86 µM | TGI (HCC-2998 colon): 18.2 µM | TGI (UACC-257 melanoma): 7.11 µM | TGI (M14 melanoma): 5.24 µM | TGI (NCI-H460 lung): 10.6 µM | TGI (SK-MEL-2 melanoma): 4.45 µM | TGI (MDA-N): 9.36 µM | TGI (COLO 205 colon): 4.25 µM | TGI (DU-145 prostate): 17.8 µM | TGI (MDA-MB-435): 3.46 µM | TGI (RPMI-8226 leukemia): 3.95 µM | TGI (UACC-62 melanoma): 17.1 µM | TGI (OVCAR-3 ovarian): 2.27 µM | TGI (MOLT-4 leukemia): 1.15 µM | TGI (SK-MEL-5 melanoma): 3.51 µM | TGI (MDA-MB-231 breast): 3.87 µM | TGI (MCF7 breast): 5.27 µM | TGI (CCRF-CEM leukemia): 1.15 µM | TGI (RXF 393 renal): 3.41 µM | TGI (EKVX NSCLC): 7.5 µM

CCOC(=O)c1c(C)n2c(=O)cc(C)c3c(OC(C)=O)c(OC(C)=O)cc1c32
GI50 (NCI-H226 lung): 10.1 µM | TGI (NCI-H226 lung): 35.7 µM | GI50 (OVCAR-5 ovarian): 11.9 µM | TGI (OVCAR-5 ovarian): 42.2 µM | GI50 (NCI-H23 lung): 4.64 µM | TGI (NCI-H23 lung): > 34.7 µM | GI50 (HOP-92 NSCLC): 4.78 µM | TGI (HOP-92 NSCLC): 41.5 µM | GI50 (KM12 colon): 5.54 µM | TGI (KM12 colon): 29.4 µM | GI50 (HCT-15 colon): 3.37 µM | TGI (HCT-15 colon): 17.2 µM | GI50 (HT29 colon): 10.9 µM | TGI (HT29 colon): 47.5 µM | GI50 (SNB-75 CNS): 6.08 µM | TGI (SNB-75 CNS): > 28.3 µM | GI50 (IGROV1 ovarian): 4.78 µM | TGI (IGROV1 ovarian): 41.9 µM | GI50 (MALME-3M melanoma): 9.93 µM | TGI (MALME-3M melanoma): 35.5 µM | GI50 (NCI/ADR-RES ovarian): 2.69 µM | TGI (NCI/ADR-RES ovarian): > 27 µM | GI50 (TK-10 renal): 15 µM | TGI (TK-10 renal): > 100 µM | GI50 (SF-295 CNS): 5.2 µM | TGI (SF-295 CNS): 45.2 µM | GI50 (SF-268 CNS): 5.26 µM | TGI (SF-268 CNS): > 74.1 µM | GI50 (HCT-116 colon): 3.56 µM | TGI (HCT-116 colon): 17 µM | GI50 (BT-549 breast): 6.21 µM | TGI (BT-549 breast): 46.1 µM | GI50 (SR leukemia): 2.78 µM | TGI (SR leukemia): > 32.2 µM | GI50 (SNB-19 CNS): 5.71 µM | TGI (SNB-19 CNS): > 65 µM | GI50 (SK-OV-3 ovarian): 11.8 µM | TGI (SK-OV-3 ovarian): 87.5 µM | GI50 (SK-MEL-28 melanoma): 4.87 µM | TGI (SK-MEL-28 melanoma): 22.5 µM | GI50 (NCI-H522 lung): 4.11 µM | TGI (NCI-H522 lung): 15.1 µM | GI50 (786-0 renal): 3.75 µM | GI50 (K-562 leukemia): 3.86 µM | TGI (K-562 leukemia): > 37.9 µM | GI50 (T-47D breast): 4.08 µM | TGI (T-47D breast): > 40.9 µM | GI50 (A549 NSCLC): 5.86 µM | TGI (A549 NSCLC): 52.3 µM | GI50 (SN12C renal): 4.97 µM | TGI (SN12C renal): 28.2 µM | GI50 (HS 578T breast): 4.52 µM | TGI (HS 578T breast): > 65.2 µM | GI50 (OVCAR-4 ovarian): 3.29 µM | TGI (OVCAR-4 ovarian): > 33.7 µM | GI50 (OVCAR-8 ovarian): 3.91 µM | TGI (OVCAR-8 ovarian): > 61.2 µM | GI50 (CAKI-1 renal): 6.37 µM | TGI (CAKI-1 renal): > 65.9 µM | GI50 (HL-60(TB) leukemia): 3.2 µM | TGI (HL-60(TB) leukemia): 12.1 µM | GI50 (PC-3 prostate): 5.65 µM | TGI (PC-3 prostate): > 49.7 µM | GI50 (SW-620 colon): 4.03 µM | TGI (SW-620 colon): 19.3 µM | GI50 (A498 renal): 14 µM | TGI (A498 renal): 52.1 µM | GI50 (SF-539 CNS): 4.24 µM | TGI (SF-539 CNS): 21.1 µM | GI50 (UO-31 renal): 4.6 µM | TGI (UO-31 renal): > 35.8 µM | GI50 (ACHN renal): 4.89 µM | TGI (ACHN renal): > 71.5 µM | GI50 (LOX IMVI melanoma): 4.52 µM | TGI (LOX IMVI melanoma): 22.9 µM | GI50 (U251 CNS): 4.76 µM | TGI (U251 CNS): > 57.7 µM | GI50 (HOP-62 NSCLC): 7.05 µM | TGI (HOP-62 NSCLC): 31.5 µM | GI50 (HCC-2998 colon): 2.45 µM | TGI (HCC-2998 colon): 15.8 µM | GI50 (UACC-257 melanoma): 7.64 µM | TGI (UACC-257 melanoma): 25.3 µM | GI50 (M14 melanoma): 3.96 µM | TGI (M14 melanoma): 18.2 µM | GI50 (NCI-H460 lung): 4.01 µM | TGI (NCI-H460 lung): 18.9 µM | GI50 (SK-MEL-2 melanoma): 4.57 µM | TGI (SK-MEL-2 melanoma): 29.8 µM | GI50 (COLO 205 colon): 4.62 µM | TGI (COLO 205 colon): 18.7 µM | GI50 (DU-145 prostate): 6.33 µM | TGI (DU-145 prostate): 22.2 µM | GI50 (MDA-MB-435): 5.76 µM | TGI (MDA-MB-435): > 53 µM | GI50 (RPMI-8226 leukemia): 2.75 µM | TGI (RPMI-8226 leukemia): 8.33 µM | GI50 (UACC-62 melanoma): 4.22 µM | TGI (UACC-62 melanoma): 14.4 µM | GI50 (OVCAR-3 ovarian): 3.49 µM | TGI (OVCAR-3 ovarian): > 62.7 µM | GI50 (MOLT-4 leukemia): 3.13 µM | TGI (MOLT-4 leukemia): > 25.5 µM | GI50 (SK-MEL-5 melanoma): 3.78 µM | TGI (SK-MEL-5 melanoma): 13.4 µM | GI50 (MDA-MB-231 breast): 4.34 µM | TGI (MDA-MB-231 breast): 34.4 µM | GI50 (MCF7 breast): 3.27 µM | TGI (MCF7 breast): 14 µM | GI50 (CCRF-CEM leukemia): 1.44 µM | TGI (CCRF-CEM leukemia): 6.45 µM | GI50 (RXF 393 renal): 3.43 µM | TGI (RXF 393 renal): 15.8 µM | GI50 (EKVX NSCLC): 4.96 µM | TGI (EKVX NSCLC): 17.8 µM
